Counter-ions that a name gives are not always drawn.
What was measured:
[1] = test system: bacterial strains that express the class D cephalosporinase OXA-15; assay: Synergy MIC / standard BLI potentiation MIC assay, strains expressing OXA-15;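 also: more active means a lower MIC or sMIC than Avibactam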; assay type: cell-based, E. coli; conditions: in the presence of a β-lactam; comparator Avibactam (CCC)
In short: (§1)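 CLSI broth microdilution in CAMHB, ~10^5 CFU/mL, 18–20 h at 37 °C with aeration; engineered E. coli kept on 25 μg/mL tetracycline. Potentiation: β-lactam 128–0.13 μg/mL with BLI fixed at 4 μg/mL; synergy MIC: BLI serially diluted with fixed β-lactam. MIC is the lowest concentration without visible turbidity.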

[2] = test system: bacterial strains that express KPC β-lactamases; assay: Synergy MIC / standard BLI potentiation MIC assay, strains expressing KPC β-lactamases; assay type: cell-based; conditions: for at least one KPC strain and/or a better spectrum of activity against KPC strains than Avibactam; in the presence of a β-lactam
In short: as §1

Compound | activity against bacterial strains that express OXA-15 β-lactamase compared with Avibactam [1] | activity against bacterial strains that express KPC β-lactamase compared with Avibactam [2]
N=C(N)N[C@H]1C[C@@H](c2nnc([C@@H]3CC[C@@H]4CN3C(=O)N4OS(=O)(=O)O)s2)C1 [Compound 784, (2S,5R)-2-(5-((1s,3R)-3-guanidinocyclobutyl)-1,3,4-thiadiazol-2-yl)-7-oxo-1,6-diazabicyclo[3.2.1]octan-6-yl hydrogen sulfate] | more active than Avibactam | more active than Avibactam
N=C(N)NCCc1nnc([C@@H]2CC[C@@H]3CN2C(=O)N3OS(=O)(=O)O)s1 [Compound 794, (2S,5R)-2-(5-(2-guanidinoethyl)-1,3,4-thiadiazol-2-yl)-7-oxo-1,6-diazabicyclo[3.2.1]octan-6-yl hydrogen sulfate] | more active than Avibactam | more active than Avibactam
N[C@H]1C[C@@H](c2nnc([C@@H]3CC[C@@H]4CN3C(=O)N4OS(=O)(=O)O)s2)C1 [Compound 795, (2S,5R)-2-(5-((1s,3R)-3-aminocyclobutyl)-1,3,4-thiadiazol-2-yl)-7-oxo-1,6-diazabicyclo[3.2.1]octan-6-yl hydrogen sulfate] | more active than Avibactam | more active than Avibactam
